# What was measured:
# Type in all cases: functional
# CCRF-CEM = assay: Anticancer activity against human CCRF-CEM cells after 48 hrs by sulforhodamine B assay
# MOLT-4 = assay: Anticancer activity against human MOLT4 cells after 48 hrs by sulforhodamine B assay
# [1] = Anticancer activity against human […] cells after 48 hrs by sulforhodamine B assay; conditions: for CC50: read-out: LC50 (the source's name)
# A549 = assay: Anticancer activity against human A549 cells after 48 hrs by sulforhodamine B assay
# NCI-H460 = assay: Anticancer activity against human NCI-H460 cells after 48 hrs by sulforhodamine B assay
# NCI-H522 = assay: Anticancer activity against human NCI-H522 cells after 48 hrs by sulforhodamine B assay
# HCT-116 = assay: Anticancer activity against human HCT116 cells after 48 hrs by sulforhodamine B assay; conditions: for CC50: read-out: LC50 (the source's name)
# HCT-15 = assay: Anticancer activity against human HCT15 cells after 48 hrs by sulforhodamine B assay; conditions: for CC50: read-out: LC50 (the source's name)
# HT-29 = assay: Anticancer activity against human HT-29 cells after 48 hrs by sulforhodamine B assay; conditions: for CC50: read-out: LC50 (the source's name)
# SF-268 = assay: Anticancer activity against human SF268 cells after 48 hrs by sulforhodamine B assay; conditions: for CC50: read-out: LC50 (the source's name)
# SF-539 = assay: Anticancer activity against human SF539 cells after 48 hrs by sulforhodamine B assay
# SNB-19 = assay: Anticancer activity against human SNB19 cells after 48 hrs by sulforhodamine B assay; conditions: for CC50: read-out: LC50 (the source's name)
# Malme-3M = assay: Anticancer activity against human MALME-3M cells after 48 hrs by sulforhodamine B assay
# M14 = assay: Anticancer activity against human M14 cells after 48 hrs by sulforhodamine B assay
# SK-MEL-28 = assay: Anticancer activity against human SK-MEL-28 cells after 48 hrs by sulforhodamine B assay
# UACC-257 = assay: Anticancer activity against human UACC257 cells after 48 hrs by sulforhodamine B assay
# UACC-62 = assay: Anticancer activity against human UACC62 cells after 48 hrs by sulforhodamine B assay
# IGROV-1 = assay: Anticancer activity against human IGROV1 cells after 48 hrs by sulforhodamine B assay; conditions: IGROV-1, 48 h; for CC50: read-out: LC50 (the source's name)
# OVCAR-3 = assay: Anticancer activity against human OVCAR-3 cells after 48 hrs by sulforhodamine B assay
# OVCAR-5 = assay: Anticancer activity against human OVCAR5 cells after 48 hrs by sulforhodamine B assay; conditions: for CC50: read-out: LC50 (the source's name)
# 786-0 = assay: Anticancer activity against human 786-0 cells after 48 hrs by sulforhodamine B assay
# CAKI-1 = assay: Anticancer activity against human Caki1 cells after 48 hrs by sulforhodamine B assay
# RXF 393 = assay: Anticancer activity against human RXF393 cells after 48 hrs by sulforhodamine B assay
# SN12C = assay: Anticancer activity against human SN12C cells after 48 hrs by sulforhodamine B assay
# TK-10 = assay: Anticancer activity against human TK10 cells after 48 hrs by sulforhodamine B assay
# UO-31 = assay: Anticancer activity against human UO31 cells after 48 hrs by sulforhodamine B assay
# PC-3 = assay: Anticancer activity against human PC3 cells after 48 hrs by sulforhodamine B assay; conditions: for CC50: read-out: LC50 (the source's name)
# DU-145 = assay: Anticancer activity against human DU145 cells after 48 hrs by sulforhodamine B assay; conditions: for CC50: read-out: LC50 (the source's name)
# MDA-MB-231 = assay: Anticancer activity against human MDA-MB-231 cells after 48 hrs by sulforhodamine B assay; conditions: for CC50: read-out: LC50 (the source's name)
# [2] = Anticancer activity against human Hs 578T cells after 48 hrs by sulforhodamine B assay; conditions: for CC50: read-out: LC50 (the source's name)
# MDA-MB-435 = assay: Anticancer activity against human MDA-MB-435 cells after 48 hrs by sulforhodamine B assay; conditions: for CC50: read-out: LC50 (the source's name)
# BT-549 = assay: Anticancer activity against human BT549 cells after 48 hrs by sulforhodamine B assay; conditions: for CC50: read-out: LC50 (the source's name)
structure (smiles),measurement,setting,value
CCCCCCCCCCCC[n+]1ccn(C)c1.F[B-](F)(F)F,GI50,CCRF-CEM,1.62 µM
same,GI50,MOLT-4,2.58 µM
same,GI50,[1],0.312 µM
same,CC50,[1],9.48 µM
same,GI50,A549,7.14 µM
same,GI50,NCI-H460,4.29 µM
same,GI50,NCI-H522,2.96 µM
same,GI50,HCT-116,2.36 µM
same,GI50,HCT-15,18.1 µM
same,GI50,HT-29,2.19 µM
same,GI50,SF-268,5.98 µM
same,GI50,SF-539,2.88 µM
same,GI50,SNB-19,10.9 µM
same,GI50,Malme-3M,5.06 µM
same,GI50,M14,4.15 µM
same,GI50,SK-MEL-28,10.1 µM
same,GI50,UACC-257,3.06 µM
same,GI50,UACC-62,4.25 µM
same,GI50,IGROV-1,0.533 µM
same,CC50,IGROV-1,> 100 µM
same,GI50,OVCAR-3,3.33 µM
same,GI50,OVCAR-5,7.49 µM
same,GI50,786-0,5.77 µM
same,GI50,CAKI-1,2.99 µM
same,GI50,RXF 393,6.52 µM
same,GI50,SN12C,3.35 µM
same,GI50,TK-10,2.04 µM
same,GI50,UO-31,15.9 µM
same,GI50,PC-3,2.08 µM
same,GI50,DU-145,10.9 µM
same,GI50,MDA-MB-231,4.68 µM
same,CC50,MDA-MB-231,64.2 µM
same,GI50,[2],6.11 µM
same,GI50,MDA-MB-435,2.15 µM
same,CC50,MDA-MB-435,77.5 µM
same,GI50,BT-549,2.38 µM
same,CC50,BT-549,51.9 µM
CCCCCCCCCCCCCCCC[n+]1ccn(C)c1.[Cl-],GI50,"CCRF-CEM; Homo sapiens, CCRF-CEM, 48 h",0.164 µM
same,GI50,"MOLT-4; Homo sapiens, MOLT-4, 48 h",0.306 µM
same,GI50,"[1]; Homo sapiens, RPMI8266, 48 h",0.24 µM
same,CC50,"[1]; Homo sapiens, RPMI8266, 48 h",0.764 µM
same,GI50,"A549; Homo sapiens, A549, 48 h",1.07 µM
same,GI50,"NCI-H460; Homo sapiens, NCI-H460, 48 h",0.498 µM
same,GI50,"NCI-H522; Homo sapiens, NCI-H522, 48 h",1.01 µM
same,GI50,"HCT-116; Homo sapiens, HCT-116, 48 h",0.349 µM
same,CC50,"HCT-116; Homo sapiens, HCT-116, 48 h",6.21 µM
same,GI50,"HCT-15; Homo sapiens, HCT-15, 48 h",1 µM
same,CC50,"HCT-15; Homo sapiens, HCT-15, 48 h",4.65 µM
same,GI50,"HT-29; Homo sapiens, HT-29, 48 h",0.311 µM
same,CC50,"HT-29; Homo sapiens, HT-29, 48 h",5.06 µM
same,GI50,"SF-268; Homo sapiens, SF-268, 48 h",1.02 µM
same,CC50,"SF-268; Homo sapiens, SF-268, 48 h",4.93 µM
same,GI50,"SF-539; Homo sapiens, SF-539, 48 h",1.34 µM
same,GI50,"SNB-19; Homo sapiens, SNB-19, 48 h",1.22 µM
same,CC50,"SNB-19; Homo sapiens, SNB-19, 48 h",9.59 µM
same,GI50,"Malme-3M; Homo sapiens, Malme-3M, 48 h",0.549 µM
same,GI50,"M14; Homo sapiens, M14, 48 h",0.343 µM
same,GI50,"SK-MEL-28; Homo sapiens, SK-MEL-28, 48 h",0.948 µM
same,GI50,"UACC-257; Homo sapiens, UACC-257, 48 h",1.12 µM
same,GI50,"UACC-62; Homo sapiens, UACC-62, 48 h",1.04 µM
same,GI50,IGROV-1,0.048 µM
same,CC50,IGROV-1,> 100 µM
same,GI50,"OVCAR-3; Homo sapiens, OVCAR-3, 48 h",0.414 µM
same,GI50,"OVCAR-5; Homo sapiens, OVCAR-5, 48 h",0.912 µM
same,CC50,"OVCAR-5; Homo sapiens, OVCAR-5, 48 h",7.24 µM
same,GI50,"786-0; Homo sapiens, 786-0, 48 h",1.18 µM
same,GI50,"CAKI-1; Homo sapiens, CAKI-1, 48 h",0.385 µM
same,GI50,"RXF 393; Homo sapiens, RXF 393, 48 h",0.379 µM
same,GI50,"SN12C; Homo sapiens, SN12C, 48 h",1 µM
same,GI50,"TK-10; Homo sapiens, TK-10, 48 h",0.295 µM
same,GI50,"UO-31; Homo sapiens, UO-31, 48 h",1.1 µM
same,GI50,"PC-3; Homo sapiens, PC-3, 48 h",0.268 µM
same,CC50,"PC-3; Homo sapiens, PC-3, 48 h",3.86 µM
same,GI50,"DU-145; Homo sapiens, DU-145, 48 h",0.719 µM
same,CC50,"DU-145; Homo sapiens, DU-145, 48 h",4.48 µM
same,GI50,"MDA-MB-231; Homo sapiens, MDA-MB-231, 48 h",0.616 µM
same,CC50,"MDA-MB-231; Homo sapiens, MDA-MB-231, 48 h",4.55 µM
same,GI50,"[2]; Homo sapiens, Hs-578T, 48 h",0.538 µM
same,CC50,"[2]; Homo sapiens, Hs-578T, 48 h",6.11 µM
same,GI50,"MDA-MB-435; Homo sapiens, MDA-MB-435, 48 h",0.482 µM
same,CC50,"MDA-MB-435; Homo sapiens, MDA-MB-435, 48 h",6.98 µM
same,GI50,"BT-549; Homo sapiens, BT-549, 48 h",1.04 µM
same,CC50,"BT-549; Homo sapiens, BT-549, 48 h",5.92 µM
CCCCCCCCCCCC[n+]1ccn(C)c1.[Cl-],GI50,CCRF-CEM,0.54 µM
same,GI50,"MOLT-4; Homo sapiens, MOLT-4, 48 h",2.9 µM
same,GI50,[1],0.109 µM
same,CC50,"[1]; Homo sapiens, RPMI8266, 48 h",6.13 µM
same,GI50,"A549; Homo sapiens, A549, 48 h",5.92 µM
same,GI50,"NCI-H460; Homo sapiens, NCI-H460, 48 h",3.39 µM
same,GI50,"NCI-H522; Homo sapiens, NCI-H522, 48 h",2.37 µM
same,GI50,"HCT-116; Homo sapiens, HCT-116, 48 h",3.59 µM
same,CC50,"HCT-116; Homo sapiens, HCT-116, 48 h",> 100 µM
same,GI50,"HCT-15; Homo sapiens, HCT-15, 48 h",20.8 µM
same,CC50,"HCT-15; Homo sapiens, HCT-15, 48 h",> 100 µM
same,GI50,"HT-29; Homo sapiens, HT-29, 48 h",2.6 µM
same,CC50,"HT-29; Homo sapiens, HT-29, 48 h",> 100 µM
same,GI50,"SF-268; Homo sapiens, SF-268, 48 h",4.68 µM
same,CC50,"SF-268; Homo sapiens, SF-268, 48 h",> 100 µM
same,GI50,"SF-539; Homo sapiens, SF-539, 48 h",2.72 µM
same,GI50,"SNB-19; Homo sapiens, SNB-19, 48 h",6.76 µM
same,CC50,"SNB-19; Homo sapiens, SNB-19, 48 h",> 100 µM
same,GI50,"Malme-3M; Homo sapiens, Malme-3M, 48 h",4.96 µM
same,GI50,M14,1.92 µM
same,GI50,SK-MEL-28,4.57 µM
same,GI50,"UACC-257; Homo sapiens, UACC-257, 48 h",1.68 µM
same,GI50,"UACC-62; Homo sapiens, UACC-62, 48 h",3.12 µM
same,GI50,"OVCAR-3; Homo sapiens, OVCAR-3, 48 h",2.84 µM
same,GI50,"OVCAR-5; Homo sapiens, OVCAR-5, 48 h",3.75 µM
same,CC50,"OVCAR-5; Homo sapiens, OVCAR-5, 48 h",> 100 µM
same,GI50,"786-0; Homo sapiens, 786-0, 48 h",3.36 µM
same,GI50,"CAKI-1; Homo sapiens, CAKI-1, 48 h",1.79 µM
same,GI50,"RXF 393; Homo sapiens, RXF 393, 48 h",5.9 µM
same,GI50,"SN12C; Homo sapiens, SN12C, 48 h",2.76 µM
same,GI50,"TK-10; Homo sapiens, TK-10, 48 h",1.92 µM
same,GI50,"UO-31; Homo sapiens, UO-31, 48 h",10.2 µM
same,GI50,"PC-3; Homo sapiens, PC-3, 48 h",1.82 µM
same,CC50,"PC-3; Homo sapiens, PC-3, 48 h",> 100 µM
same,GI50,DU-145,0.688 µM
same,CC50,"DU-145; Homo sapiens, DU-145, 48 h",> 100 µM
same,GI50,"MDA-MB-231; Homo sapiens, MDA-MB-231, 48 h",3.39 µM
same,CC50,"MDA-MB-231; Homo sapiens, MDA-MB-231, 48 h",63.6 µM
same,GI50,"[2]; Homo sapiens, Hs-578T, 48 h",3.13 µM
same,CC50,"[2]; Homo sapiens, Hs-578T, 48 h",> 100 µM
same,GI50,"MDA-MB-435; Homo sapiens, MDA-MB-435, 48 h",1.79 µM
same,CC50,"MDA-MB-435; Homo sapiens, MDA-MB-435, 48 h",69.1 µM
same,GI50,"BT-549; Homo sapiens, BT-549, 48 h",1.84 µM
same,CC50,"BT-549; Homo sapiens, BT-549, 48 h",50.8 µM
